Source: patent US20090118135A1, “METHODS AND COMPOUNDS FOR REGULATING APOPTOSIS” (The Burnham Institute, priority 2007, published 2009)

Molecular target: T1, GST-Bfl-1 (Homo sapiens, UniProt Q16548)
T1 construct: lacking their C-terminal transmembrane domains (about the last 20 amino acids) (“ΔTM”); made in house; host or cells: XL-1 Blue E. coli, pGEX 4T-1
T1 sequence (Q16548 1-155 limits assumed): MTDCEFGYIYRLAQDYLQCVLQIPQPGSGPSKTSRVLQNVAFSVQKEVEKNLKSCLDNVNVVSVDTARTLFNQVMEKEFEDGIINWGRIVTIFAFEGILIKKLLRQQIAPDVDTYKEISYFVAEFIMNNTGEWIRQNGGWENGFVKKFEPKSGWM
Assay: Bfl-1/FITC-Bid BH3 competitive fluorescence polarization assay
Assay type: binding
Conditions: primary HTS hits, MLSCN library (PubChem SIDs), Table 5B
Method: A FPA was performed to determine the binding affinity of FITC-Bid BH3 peptide to Bcl-2 proteins. […] IC50 determinations were performed using GraphPad Prism software (GraphPad, Inc., San Diego, Calif.). FPA competition assays were performed using the same procedure described above, except that 100 nM of GST-Bfl-1 protein in a volume of 45 μl was incubated with 5 μl (50 μM) test compounds in DMSO per well for 30 min prior to addition of 50 μl (5 nM) FITC-Bid BH3 peptide. The final DMSO concentration was 5% when the reactions brought to fall volume of 100 μl. Fluorescence polarization was measured after 10 min. Compounds that reduced the fluorescence polarization by 50% were considered hits.

Compound | % Activity [%] | FRatio
CC1=C(N2C(=O)c3ccc4c5c(ccc(c35)C2=O)CC4)C(C)N(c2ccccc2)N1C (stereo not drawn) [Compound 7978392] | 111.5 | 0.39
CCn1c(SC(C)C(=O)O)nc2sc3c(c2c1=O)CCC3 (stereo not drawn) [Compound 856662] | 95.1 | 0.59
Cn1c(=N)c(S(=O)(=O)c2ccccc2)cc2c(=O)n3ccccc3nc21 [Compound 859963] | 50.4 | 1.49
Cc1ccc2c(c1)c(=O)c1c3n2CCN(C(=O)CCl)C3CC1 (stereo not drawn) [Compound 14742276] | 72.4 | 0.88
O=C(Cc1ccccc1)Nc1ccc(N2CCCC2)cc1 [Compound 14739360] | 59.1 | 0.93
COC(=O)CNc1c(-c2ccccn2)nc2ccc(Br)cn12 [Compound 4251133] | 51.2 | 1.16
Clc1ccc2nc(CN3CCCc4ccccc43)cn2c1 [Compound 3711377] | 61.3 | 0.75
Cc1ccc(-c2nnc(S)n2/N=C/C=C/c2ccccc2[N+](=O)[O-])cc1 [Compound 14729394] | 55.5 | 0.81
CCOc1ccc(C(=O)OCC(=O)NCc2ccco2)cc1OCC [Compound 3714498] | 71.4 | 1
CN1CCC2=C(C1)SC1C2C(NCc2ccco2)=Nc2nnnn21 (stereo not drawn) [Compound 864825] | 96.4 | 1.26
CCC(=O)Nc1cccc(NC(C)=O)c1 [Compound 14746435] | 92.4 | 0.85
Cc1ccc(/N=N/c2ccc(O)c(/C=N/NC(=O)c3ccc(N)cc3)c2)cc1C [Compound 16952937] | 91.7 | 0.71
COc1ccc(C2C=C(c3ccc(Br)cc3)Nc3nc(NS(C)(=O)=O)nn32)cc1 (stereo not drawn) [Compound 17401655] | 54.6 | 1.46
CC(=O)Nc1ccc(S(=O)(=O)/N=C2/C(=O)c3ccccc3C(O)=C2N2CCN(Cc3ccccc3)CC2)cc1 [Compound 14742166] | 50.6 | 0.73
COc1ccccc1-c1nnc2sc(-c3cnccn3)nn12 [Compound 4265558] | 75.3 | 0.59
COc1ccc(S(=O)(=O)N2CCCC2C(=O)Nc2nnc(-c3cccnc3)s2)cc1 (stereo not drawn) [Compound 3713012] | 50.9 | 0.9
CC(=O)c1sc2nc(SCC(=O)N3CCCCC3)nc(O)c2c1C [Compound 4259313] | 57 | 0.82
COc1cc(-c2nnc(SCc3cc(=O)oc4cc(O)c(O)cc34)o2)cc(OC)c1OC [Compound 17385711] | 68.3 | 0.7
COC(=O)c1[nH]c2ccc(C)cc2c1NC(=O)CCN1CCN(Cc2ccc3c(c2)OCO3)CC1 [Compound 862218] | 69.7 | 0.81
COc1ccc(C(=O)Nc2ccc(N3CCCC3)cc2)cc1 [Compound 14739290] | 78.8 | 0.85
CN(C)S(=O)(=O)N(CC(=O)N(Cc1ccccc1)Cc1ccccc1)c1ccccc1 [Compound 14736293] | 90.4 | 0.73
CCc1ccccc1NC(=O)c1cc2ncc(Br)cn2n1 [Compound 14733824] | 74.2 | 0.79
Cc1cc2cc(CN(Cc3ccco3)S(=O)(=O)c3c(C)ccc4nsnc34)c(O)nc2cc1C [Compound 14720830] | 56 | 1.29
COc1ccc(Nc2cc(C)nc3nc(C)nn23)cc1Cl [Compound 7967129] | 82.3 | 1.11

Compound | % Activity [%] | FRatio
COC(=O)c1ccccc1NC(=O)c1noc2c1CCC2 [Compound 4245926] | 72.8 | 0.46
Cc1cccn2c(=O)c3cc(C(=O)NCC4CCCO4)c(=N)n(Cc4cccnc4)c3nc12 (stereo not drawn) [Compound 849581] | 60.6 | 0.89
O=c1c([N+](=O)[O-])cc(C(F)(F)F)cn1Cc1cccc(Cl)c1 [Compound 17402915] | 89.8 | 0.61
CC(=O)C1=C(O)C(=O)N(Cc2ccccc2)C1c1ccco1 (stereo not drawn) [Compound 851207] | 52.6 | 0.52
CC(=O)c1c(COC(=O)c2ccco2)nc2ccccc2[n+]1[O-] [Compound 863818] | 68.3 | 0.88
CCn1c(SCC(=O)O)nc2sc3c(c2c1=O)CCC3 [Compound 856717] | 83 | 0.85
C=CCn1c(SCC(=O)OC)nc2sc3c(c2c1=O)CCN(C)C3 [Compound 856802] | 53.2 | 1.23
O=C(N/N=C/c1ccc(F)cc1)c1cc(-c2ccco2)nc2ccccc12 [Compound 17408998] | 84.8 | 0.87
Cc1cccc(OCC(=O)Nc2ccc(N3CCCC3)cc2)c1C [Compound 7975075] | 76.1 | 0.72
O=c1oc2c3c4c(cc2s1)CCCN4CCC3 [Compound 7978324] | 66.9 | 1.02
COc1ccc(NC(=O)c2noc3c2CCC3)cc1 [Compound 14733727] | 102.1 | 0.93
Cc1c(NC(=O)c2cc3nc(-c4ccccc4)cc(C)n3n2)c(=O)n(-c2ccccc2)n1C [Compound 844334] | 63.5 | 0.88
CCSc1nnc(NC(=O)c2cnccn2)s1 [Compound 7977261] | 58.3 | 1.19
O=C(CSc1ccc(Cl)cc1)c1ccco1 [Compound 3711335] | 75.2 | 0.83
CN(C)c1ccc(NC(=O)CN2C(=O)CN=C(c3ccccc3)c3cc(Cl)ccc32)cc1 [Compound 14738707] | 66.4 | 0.84
FC(F)(F)c1cnc(Nc2ccc(N3CCOCC3)cc2)c(Cl)c1 [Compound 3713921] | 51.4 | 0.51
O=C(Nc1ccccc1)c1ccc2nc(-c3ccco3)c(-c3ccco3)nc2c1 [Compound 4258186] | 52.2 | 0.88
c1cc2c3c(cccc3c1)NC1(CCCCCC1)N2 [Compound 4263637] | 64.3 | 0.58
Cn1c(C(C#N)C2=C(Cl)C(=O)N(c3ccccc3)C2=O)nc2ccccc21 (stereo not drawn) [Compound 3716185] | 89.8 | 0.68
O=C(COC(=O)c1cccs1)NCc1ccco1 [Compound 3712480] | 79.7 | 0.96
CC1CC(C)CN(C(=O)c2ccc3c(c2NCCO)C(=O)c2ccccc2C3=O)C1 (stereo not drawn) [Compound 14734023] | 83.7 | 0.97
CN(C)c1ccc(NC(=O)Cn2cc3c(n2)CCCC3)cc1 [Compound 7968138] | 57.6 | 0.56
O=C(COC(=O)c1cncc(Br)c1)NCc1ccco1 [Compound 3715512] | 55.4 | 0.95
O=C(Cc1cnn(-c2ccccc2)c1)c1ccc(O)c(O)c1O [Compound 14732615] | 57.8 | 0.74
